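Five concentrations, 48 hours, 96-well plates. GI50 marks 50% less growth.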 Calls of active or inactive are those of the source. Rule as the data show it: active = GI50 up to about 1.1 µM and inactive = higher.
Key:
Experiment in all cases: NCI-60 cell line screen, 48 h
[1] = tested on: SF-539
[2] = tested on: SN12C
[3] = tested on: OVCAR-8
[4] = tested on: HOP-92
[5] = tested on: 786-0
[6] = tested on: RXF 393
[7] = tested on: SR
[8] = tested on: HCC 2998
[9] = tested on: IGROV-1
[10] = tested on: NCI-H23
[11] = tested on: CAKI-1
[12] = tested on: SK-MEL-28
[13] = tested on: DMS-114
[14] = tested on: SNB-75
[15] = tested on: SK-MEL-5
[16] = tested on: LOX IMVI
[17] = tested on: MDA-N
[18] = tested on: MDA-MB-231
[19] = tested on: MCF7
[20] = tested on: PC-3

Structure (SMILES) | GI50 [1] | GI50 [2] | GI50 [3] | GI50 [4] | GI50 [5] | GI50 [6] | GI50 [7] | GI50 [8] | GI50 [9] | GI50 [10] | GI50 [11] | GI50 [12] | GI50 [13] | GI50 [14] | GI50 [15] | GI50 [16] | GI50 [17] | GI50 [18] | GI50 [19] | GI50 [20]
Cc1cccc(C)c1NC(=O)C(=O)C(C#N)c1ccccc1Cl (stereo unspecified) | > 100 µM (inactive) | > 100 µM (inactive) | > 100 µM (inactive) | > 100 µM (inactive) | > 100 µM (inactive) | > 100 µM (inactive) | > 100 µM (inactive) | > 100 µM (inactive) | > 100 µM (inactive) | > 100 µM (inactive) | > 100 µM (inactive) | > 100 µM (inactive) | > 100 µM (inactive) | > 100 µM (inactive) | > 100 µM (inactive) | – | – | – | – | –
O=C1OC(c2ccccc2)=N/C1=C/NC(CO)C(=O)O (stereo unspecified) | > 100 µM (inactive) | – | > 100 µM (inactive) | > 100 µM (inactive) | > 100 µM (inactive) | > 100 µM (inactive) | – | > 100 µM (inactive) | 67.1 µM (inactive) | > 100 µM (inactive) | > 100 µM (inactive) | > 100 µM (inactive) | > 100 µM (inactive) | > 100 µM (inactive) | > 100 µM (inactive) | > 100 µM (inactive) | – | – | – | –
COc1ccc2cccc(C(=N)c3ccc(C)c4c3CCC4)c2c1 | – | 12 µM (inactive) | 11.4 µM (inactive) | – | 10.2 µM (inactive) | 12.8 µM (inactive) | 2.62 µM (inactive) | 10.8 µM (inactive) | 6.15 µM (inactive) | 7.57 µM (inactive) | 3.95 µM (inactive) | 13 µM (inactive) | 7.08 µM (inactive) | 11.8 µM (inactive) | 3.9 µM (inactive) | 11.7 µM (inactive) | – | – | – | –
Cc1ccc(S(=O)(=O)Nc2ccccc2C(C)(C)C)cc1 | 17.3 µM (inactive) | – | 29.6 µM (inactive) | – | 25.5 µM (inactive) | 6.31 µM (inactive) | – | 42.8 µM (inactive) | 30.7 µM (inactive) | 15.5 µM (inactive) | 18.7 µM (inactive) | 19.7 µM (inactive) | 17.9 µM (inactive) | 35.9 µM (inactive) | 15.2 µM (inactive) | – | – | – | – | –
O=[N+]([O-])c1ccc(C[P+](c2ccccc2)(c2ccccc2)c2ccccc2)cc1 | 67.8 µM (inactive) | > 100 µM (inactive) | 73.1 µM (inactive) | – | > 100 µM (inactive) | 11.9 µM (inactive) | 38.4 µM (inactive) | 36.1 µM (inactive) | 25.4 µM (inactive) | 83.8 µM (inactive) | – | 35.1 µM (inactive) | 23.2 µM (inactive) | 35.9 µM (inactive) | 57 µM (inactive) | 42 µM (inactive) | – | – | – | –
CC1(C)CC(=O)C=C(NC(=O)c2ccccc2)C1 | > 100 µM (inactive) | > 100 µM (inactive) | > 100 µM (inactive) | > 100 µM (inactive) | > 100 µM (inactive) | > 100 µM (inactive) | – | > 100 µM (inactive) | > 100 µM (inactive) | > 100 µM (inactive) | > 100 µM (inactive) | > 100 µM (inactive) | > 100 µM (inactive) | > 100 µM (inactive) | > 100 µM (inactive) | > 100 µM (inactive) | – | – | – | –
COCc1c(CO)cnc(C)c1OC1OC(CO)C(O)C(O)C1O (stereo unspecified) | > 100 µM (inactive) | > 100 µM (inactive) | > 100 µM (inactive) | – | > 100 µM (inactive) | > 100 µM (inactive) | > 100 µM (inactive) | > 100 µM (inactive) | > 100 µM (inactive) | – | > 100 µM (inactive) | > 100 µM (inactive) | > 100 µM (inactive) | > 100 µM (inactive) | > 100 µM (inactive) | > 100 µM (inactive) | – | – | – | –
Nc1cc(=O)n(-c2ccccc2)c(=S)n1-c1ccccc1 | > 100 µM (inactive) | > 100 µM (inactive) | > 100 µM (inactive) | – | > 100 µM (inactive) | > 100 µM (inactive) | – | > 100 µM (inactive) | > 100 µM (inactive) | – | > 100 µM (inactive) | – | > 100 µM (inactive) | > 100 µM (inactive) | > 100 µM (inactive) | > 100 µM (inactive) | – | – | – | –
Cc1ccc(-c2c(C#N)c(S)n(NS(=O)(=O)c3ccccc3)c(=O)c2C#N)cc1 | 20.6 µM (inactive) | 27.9 µM (inactive) | 21.2 µM (inactive) | 24.1 µM (inactive) | 29.6 µM (inactive) | 41.1 µM (inactive) | 15.1 µM (inactive) | 47 µM (inactive) | 23.7 µM (inactive) | 37.8 µM (inactive) | 31.9 µM (inactive) | > 100 µM (inactive) | – | 42.2 µM (inactive) | 25 µM (inactive) | 28.5 µM (inactive) | 29.7 µM (inactive) | 26.1 µM (inactive) | 28.6 µM (inactive) | 23.5 µM (inactive)
O=c1[nH]c(Br)nc2c(Br)c[nH]c12 | > 100 µM (inactive) | > 100 µM (inactive) | > 100 µM (inactive) | > 100 µM (inactive) | > 100 µM (inactive) | > 100 µM (inactive) | – | – | > 100 µM (inactive) | > 100 µM (inactive) | > 100 µM (inactive) | > 100 µM (inactive) | > 100 µM (inactive) | > 100 µM (inactive) | > 100 µM (inactive) | > 100 µM (inactive) | – | – | – | –
COc1ccc(/C=C/C(=O)/C=C/c2ccc(OC)cc2)cc1 | 26.4 µM (inactive) | > 100 µM (inactive) | 17.6 µM (inactive) | 32.5 µM (inactive) | 46.5 µM (inactive) | 18.3 µM (inactive) | 22.5 µM (inactive) | 0.222 µM (active) | 45.6 µM (inactive) | > 100 µM (inactive) | > 100 µM (inactive) | > 100 µM (inactive) | – | 38.9 µM (inactive) | 31.3 µM (inactive) | 40.4 µM (inactive) | 19 µM (inactive) | 89.1 µM (inactive) | 47.8 µM (inactive) | 69.3 µM (inactive)
O=C(O)c1cc(=O)c2[nH]c3ccccc3c2s1 | – | > 100 µM (inactive) | > 100 µM (inactive) | > 100 µM (inactive) | > 100 µM (inactive) | > 100 µM (inactive) | – | > 100 µM (inactive) | > 100 µM (inactive) | > 100 µM (inactive) | > 100 µM (inactive) | > 100 µM (inactive) | > 100 µM (inactive) | 41.4 µM (inactive) | > 100 µM (inactive) | – | – | – | – | –
COc1ccc(C[C@H](N)C(=O)NC2C(CO)OC(n3cnc4c(N(C)C)ncnc43)C2O)cc1 (stereo partly specified) | – | 0.178 µM (active) | 0.182 µM (active) | 0.196 µM (active) | 0.695 µM (active) | 0.261 µM (active) | 0.138 µM (active) | 0.29 µM (active) | 0.451 µM (active) | 0.161 µM (active) | – | 0.187 µM (active) | 0.17 µM (active) | 0.0807 µM (active) | 0.234 µM (active) | 0.112 µM (active) | – | – | – | –
N#Cc1cc(NC(=O)c2ccccc2)c(=O)n2c1[nH]c1ccccc12 | 21.5 µM (inactive) | 29.1 µM (inactive) | 38.3 µM (inactive) | – | 37.2 µM (inactive) | 13.6 µM (inactive) | – | 28.8 µM (inactive) | 24.5 µM (inactive) | 20 µM (inactive) | 35.9 µM (inactive) | 21.6 µM (inactive) | 23 µM (inactive) | 25.9 µM (inactive) | 12.7 µM (inactive) | – | – | – | – | –
COC(=O)c1oc([N+](=O)[O-])c(Cl)c1Cl | 6.01 µM (inactive) | 7.53 µM (inactive) | 10.6 µM (inactive) | 20 µM (inactive) | 4.14 µM (inactive) | 12.7 µM (inactive) | 2.08 µM (inactive) | 20 µM (inactive) | 7.67 µM (inactive) | 8.73 µM (inactive) | 2.44 µM (inactive) | 8.53 µM (inactive) | – | 7.78 µM (inactive) | 9.08 µM (inactive) | 6.05 µM (inactive) | 7.98 µM (inactive) | 7.35 µM (inactive) | 2.04 µM (inactive) | 8.34 µM (inactive)
O=C1c2sccc2C(=O)c2c(CO)csc21 | 3.65 µM (inactive) | 6.46 µM (inactive) | 3.66 µM (inactive) | 7.5 µM (inactive) | 3.94 µM (inactive) | 1.39 µM (inactive) | 3.42 µM (inactive) | 3.44 µM (inactive) | 4.03 µM (inactive) | 2.07 µM (inactive) | 15.1 µM (inactive) | 7.8 µM (inactive) | – | 5.24 µM (inactive) | 0.83 µM (active) | 2.88 µM (inactive) | 1.72 µM (inactive) | 17.2 µM (inactive) | 5.12 µM (inactive) | 3.32 µM (inactive)
CC(=O)O/N=C(/C)c1ccccc1O | > 100 µM (inactive) | > 100 µM (inactive) | > 100 µM (inactive) | – | > 100 µM (inactive) | > 100 µM (inactive) | – | > 100 µM (inactive) | > 100 µM (inactive) | > 100 µM (inactive) | > 100 µM (inactive) | > 100 µM (inactive) | > 100 µM (inactive) | > 100 µM (inactive) | – | > 100 µM (inactive) | – | – | – | –
Cc1ccc(-n2c3nc(=O)n(C)c(=O)c-3nc3ccccc32)cc1 | 27.8 µM (inactive) | 11.5 µM (inactive) | 9.2 µM (inactive) | – | 30.2 µM (inactive) | 64.9 µM (inactive) | – | 4.61 µM (inactive) | 31.6 µM (inactive) | 1.56 µM (inactive) | 21.9 µM (inactive) | – | 13.7 µM (inactive) | 10.9 µM (inactive) | 13.4 µM (inactive) | 20.4 µM (inactive) | – | – | – | –
Nc1nc(OCc2ccccc2)c2nc[nH]c2n1 [6-O-BENZYLGUANINE] | 91.4 µM (inactive) | 90.4 µM (inactive) | 112 µM (inactive) | 64.4 µM (inactive) | 80.7 µM (inactive) | 32.5 µM (inactive) | – | 148 µM (inactive) | 64.6 µM (inactive) | 97.1 µM (inactive) | 23.1 µM (inactive) | 140 µM (inactive) | 64 µM (inactive) | 24.8 µM (inactive) | 81.1 µM (inactive) | 64.6 µM (inactive) | – | – | – | –
